The numbers were not newly measured in publication PMC6696021, “Combined Ensemble Docking and Machine Learning in Identification of Therapeutic Agents with Potential Inhibitory Effect on Human CES1” (Molecules, 2019), which cites them from elsewhere.

In the data set the target is CES1. Set-up: method as in earlier work. Conditions: Table S1, bioactivity from ChEMBL database; read-out: Ki_Nanomolar; cited from earlier work.

pKi: −log10 of the molar value.

For `O=C(c1ccccc1)C(O)c1ccccc1` (centres unmarked) [BENZOIN], the pKi was 4.52.
In the case of `O=C(C(=O)C(Br)c1ccccc1)C(Br)c1ccccc1` (centres unmarked) [CHEMBL1812851], the pKi is 6.97.
With `O=C(C(=O)c1cc(Br)cs1)c1cc(Br)cs1` [CHEMBL190672], the pKi was 7.68.
In the case of `O=C(CSCCc1ccccc1)C(F)(F)F` [CHEMBL460809], the pKi is 7.20.
Consider `O=C1C(=O)c2ccc([N+](=O)[O-])c3c([N+](=O)[O-])ccc1c23` [CHEMBL235289], for which the pKi was 6.24.
As to `O=C(C(=O)c1ccc(F)cc1)c1ccc(F)cc1` [CHEMBL192410], the pKi is 6.64.
Turning to `O=C1Nc2c(Cl)ccc(Cl)c2C1=O` [CHEMBL223039], the pKi is 6.23.
With `COc1cccc(C(=O)C(=O)c2cccc(OC)c2)c1` [CHEMBL435109], the pKi was 5.81.
`O=C(C(=O)c1ccc(Cl)cc1)c1ccc(Cl)cc1` [CHEMBL192139]: the pKi is 4.60.
Consider `O=C1C(=O)N(c2ccccc2)c2ccccc21` [PHENYLISATIN], for which the pKi was 7.64.
For the compound `O=C1C(=O)N(CNc2ccccc2Br)c2ccccc21` [CHEMBL374758], the pKi is 4.44.
With `O=C1C(=O)N(Cc2ccc(Cc3ccc(CN4C(=O)C(=O)c5ccccc54)cc3)cc2)c2ccccc21` [CHEMBL222752], the pKi is 8.10.
As for `O=C1Cc2ccccc2C1=O` [CHEMBL235288], the pKi is 5.28.
Consider `Cc1ccc(C(=O)C(=O)c2ccccc2)cc1[N+](=O)[O-]` [CHEMBL191847], for which the pKi is 6.65.
On to `O=C1C(=O)c2ccccc2-c2ccccc21` [9-10-PHENANTHRENEQUINONE], for which the pKi was 8.60.
In the case of `O=C(C(=O)c1cc(F)cc(F)c1)c1cc(F)cc(F)c1` [CHEMBL193229], the pKi is 7.10.
Consider `CCCC(=O)C(=O)CCC` [CHEMBL1812854], for which the pKi is 5.09.
Take `O=C(C(=O)c1ccc(Br)cc1)c1ccc(Br)cc1` [CHEMBL193228]: the pKi was 4.18.
Regarding `O=C1C(=O)c2cccc3cccc1c23` [ACENAPHTHOQUINONE], the pKi is 7.51.
Regarding `O=C1C(=O)N(Cc2ccccc2)c2ccccc21` [CHEMBL115581], the pKi is 5.77.
With `CCCCCCCCSCC(=O)C(F)(F)F` [CHEMBL89506], the pKi is 7.01.
Turning to `O=C(C(=O)c1ccccc1Cl)c1ccccc1Cl` [CHEMBL365392], the pKi was 5.78.
With `O=C1C(=O)C(Cl)=C(Cl)C(Cl)=C1Cl` [CHEMBL364729], the pKi was 5.26.
For `O=C(C(=O)c1ccc([N+](=O)[O-])cc1)c1ccc([N+](=O)[O-])cc1` [CHEMBL236340], the pKi was 5.01.
For `O=C1C(=O)N(CNc2ccc(Br)cc2)c2ccccc21` [CHEMBL385132], the pKi is 6.24.
With `O=C(C(=O)c1cccs1)c1cccs1` [CHEMBL365445], the pKi was 6.36.
As for `Cc1coc2c1C(=O)C(=O)c1c-2ccc2c(C)cccc12` [TANSHINONEI], the pKi was 4.58.
On to `COc1ccc(C(=O)C(=O)c2ccccc2Cl)cc1OC` [CHEMBL191822], for which the pKi was 5.48.
As for `O=C1C(=O)N(CNc2ccc(Cl)cc2)c2ccccc21` [CHEMBL222712], the pKi was 6.21.
`CCCC(=O)C(=O)c1ccccc1` [CHEMBL1812861]: the pKi is 6.99.
As to `O=C1C(=O)c2sccc2-c2ccsc21` [CHEMBL398109], the pKi is 6.82.
As for `CCCCCCCCCCCCS(=O)(=O)CC(O)(O)C(F)(F)F` [CHEMBL467450], the pKi is 6.43.
Turning to `CCCCC(=O)C(=O)c1ccccc1` [CHEMBL1812862], the pKi is 7.58.
For `CC(=O)C(=O)c1ccccc1` [CHEMBL192258], the pKi is 5.28.
As to `CCCCCCCCCCSCC(=O)C(F)(F)F` [CHEMBL270374], the pKi is 7.18.
Consider `O=C1C(=O)N(Cc2ccc(Cl)c(Cl)c2)c2ccccc21` [CHEMBL375126], for which the pKi was 7.51.
In the case of `O=C(C(=O)C1CCCCC1)C1CCCCC1` [CHEMBL235287], the pKi is 7.41.
`CCCCCCCC[S+]([O-])CC(O)(O)C(F)(F)F` (centres unmarked) [CHEMBL460806]: the pKi is 5.13.
For the compound `O=C1Nc2cc(Cl)cc(Cl)c2C1=O` [CHEMBL385800], the pKi was 6.05.
Turning to `O=C(Cc1ccccc1Nc1c(Cl)cccc1Cl)O[C@@H]1O[C@H](C(=O)O)[C@@H](O)[C@H](O)[C@H]1O` [CHEMBL3527338], the pKi is 5.36.
In the case of `O=C(C(=O)c1ccc(CBr)cc1)c1ccccc1` [CHEMBL192241], the pKi was 7.11.
As to `O=C1C(=O)c2cccc3c2N(CCC3)C1=O` [CHEMBL235290], the pKi is 5.27.
In the case of `O=C(C(=O)c1cc(F)c(F)c(F)c1)c1cc(F)c(F)c(F)c1` [CHEMBL193180], the pKi was 6.39.
For the compound `Cc1ccc(NCN2C(=O)C(=O)c3ccccc32)cc1` [CHEMBL222851], the pKi is 5.58.
`O=C(C(=O)c1ccccn1)c1cccc(NC(=O)c2ccc(Cl)cc2Cl)c1` [CHEMBL1630808]: the pKi is 6.55.
For `Cc1ccc(C(=O)C(=O)c2ccccc2)cc1` [CHEMBL371858], the pKi was 6.90.
As for `O=C(O)[C@H]1O[C@@H](OC(=O)[C@H](c2ccccc2Cl)N2CCc3sccc3C2)[C@H](O)[C@@H](O)[C@@H]1O` [CHEMBL3526940], the pKi is 4.61.
For `CCCCCCCCCCC(=O)C(F)(F)F` [CHEMBL86668], the pKi was 7.11.
Take `CCCCCCCCC(=O)C(=O)CCCCCCCC` [CHEMBL1812859]: the pKi is 9.08.
As to `CCCCCCCCCC[S+]([O-])CC(O)(O)C(F)(F)F` (centres unmarked) [CHEMBL464002], the pKi was 5.58.
Turning to `Cc1cccc2c3c(ccc12)C1=C(C(=O)C3=O)[C@@H](C)CO1` [DIHYDROTANSHINONEI], the pKi was 6.40.
`Cc1ccc(C(=O)Nc2cccc(C(=O)C(=O)c3ccccn3)c2)cc1` [CHEMBL1630810]: the pKi was 5.99.
Consider `O=C1C(=O)c2ccccc2CCc2ccccc21` [CHEMBL235931], for which the pKi is 5.53.
`O=C(C(=O)c1cccc([N+](=O)[O-])c1)c1cccc([N+](=O)[O-])c1` [CHEMBL191796]: the pKi is 4.74.
In the case of `O=C(C(=O)c1ccccn1)c1ccccn1` [CHEMBL373345], the pKi is 6.61.
In the case of `CCCCCCSCC(=O)C(F)(F)F` [CHEMBL440542], the pKi is 6.77.
`O=C(c1cccs1)C(O)c1cccs1` (centres unmarked) [CHEMBL190660]: the pKi is 5.51.
`Cc1ccc(C(=O)C(=O)c2ccccc2)cc1C` [CHEMBL193140]: the pKi is 7.10.
Turning to `O=C1C(=O)c2c3ccccc3cc3cccc1c23` [CHEMBL235503], the pKi is 8.82.
Take `O=C(Nc1cccc(C(=O)C(=O)c2ccccn2)c1)c1ccc(C(F)(F)F)cc1` [CHEMBL1629724]: the pKi is 6.36.
For the compound `O=C1C(=O)N(CCI)c2ccccc21` [CHEMBL376518], the pKi is 6.89.
For the compound `O=C(CC(=O)c1ccccc1)c1ccccc1` [DIBENZOYLMETHANE], the pKi was 4.59.
Regarding `CCCCCCCCCCCCSCC(=O)C(F)(F)F` [CHEMBL270375], the pKi was 7.41.
Consider `O=C(Cc1ccccc1)C(=O)C(Br)c1ccccc1` (centres unmarked) [CHEMBL1812852], for which the pKi was 5.58.
Consider `CCCCCCCC(=O)C(=O)CCCCCCC` [CHEMBL1812858], for which the pKi is 8.12.
Take `CCCCCCC(=O)C(=O)CCCCCC` [CHEMBL1812857]: the pKi is 8.32.
In the case of `O=C1C(=O)N2CCCc3cccc1c32` [CHEMBL395654], the pKi is 5.81.
Regarding `O=C(C(=O)c1ccsc1)c1ccsc1` [CHEMBL372716], the pKi is 5.98.
Turning to `O=C(Nc1cccc(C(=O)C(=O)c2ccccn2)c1)c1ccc(F)c(F)c1` [CHEMBL1630811], the pKi is 5.91.
Regarding `CCCCCC(=O)C(=O)c1ccccc1` [CHEMBL1812863], the pKi was 8.18.
Consider `C[C@H]1COC2=C1C(=O)C(=O)c1c2ccc2c1CCCC2(C)C` [CRYPTOTANSHINONE], for which the pKi was 6.26.
Consider `OC(O)(CSCCc1ccccc1)C(F)(F)F` [CHEMBL510996], for which the pKi was 5.16.
In the case of `Cc1coc2c1C(=O)C(=O)c1c-2ccc2c1CCCC2(C)C` [TANSHINONEIIA], the pKi was 5.16.
Consider `CCCCCC[S+]([O-])CC(O)(O)C(F)(F)F` (centres unmarked) [CHEMBL460808], for which the pKi was 4.40.
Consider `COc1cc(NCN2C(=O)C(=O)c3ccccc32)cc(OC)c1OC` [CHEMBL221362], for which the pKi was 4.71.
Regarding `O=C(C(=O)c1ccco1)c1ccco1` [CHEMBL371181], the pKi was 5.44.
As to `C=C(C)CN1C(=O)C(=O)c2cc(Br)ccc21` [CHEMBL225169], the pKi was 7.18.
For the compound `O=C1C(Cl)=C(Cl)C(=O)C(Cl)=C1Cl` [CHLORANIL], the pKi is 7.08.
For the compound `Cc1ccc(C(=O)C(=O)c2ccc(C)cc2)cc1` [CHEMBL192625], the pKi is 6.27.
Turning to `O=C(Cc1ccccc1)C(=O)Cc1ccccc1` [CHEMBL1812850], the pKi was 5.51.
Turning to `CC(C)C1=Cc2ccc3c(c2C(=O)C1=O)CCCC3(C)C` [MILTIRONE], the pKi is 5.60.
On to `COc1ccc(C(=O)C(=O)c2ccccc2)cc1` [CHEMBL192474], for which the pKi is 6.76.
As for `O=C1Nc2c(ccc(Cl)c2Cl)C1=O` [CHEMBL222292], the pKi was 5.03.
Turning to `CCCCCCCCCCCC[S+]([O-])CC(O)(O)C(F)(F)F` (centres unmarked) [CHEMBL463556], the pKi is 6.02.
Regarding `CCCCCCOCC(O)(O)C(F)(F)F` [CHEMBL449475], the pKi was 5.78.
With `CCCCC(=O)C(=O)CCCC` [CHEMBL1812855], the pKi is 7.33.
As for `CCCCSCC(=O)C(F)(F)F` [CHEMBL402615], the pKi was 6.40.
Consider `CC(=O)N1C(=O)C(=O)c2ccccc21` [CHEMBL223001], for which the pKi was 4.44.
Turning to `O=C1Nc2ccc(Br)cc2C1=O` [CHEMBL115897], the pKi was 4.50.
On to `O=C1Nc2c(Cl)cccc2C1=O` [CHEMBL222190], for which the pKi is 4.94.
As to `CCCCCCS(=O)(=O)CC(O)(O)C(F)(F)F` [CHEMBL449775], the pKi was 5.31.
In the case of `O=C(C(=O)c1ccc(Cl)cc1)c1ccccc1` [CHEMBL192180], the pKi was 7.43.
With `O=C1Nc2cc(Cl)c(Cl)cc2C1=O` [CHEMBL222988], the pKi was 4.68.
`CCCCCCC(=O)C(=O)c1ccccc1` [CHEMBL1812864]: the pKi was 8.66.
For the compound `O=C1C=Cc2ccccc2C1=O` [1-2-NAPHTHOQUINONE], the pKi was 6.03.
